Values of other authors in US20050281872A1, “Enhanced compliance antiviral medicaments and methods of manufacture and use” (priority 2004, published 2005).

Key:
[1] = ribavirin powder
[2] = patients receiving ribavirin antiviral therapy
[3] = taking antacids containing magnesium, aluminum, and simethicone

Compound | solubility in alcohol (alcohol) | solubility in water (water) | dissolution time in water [1] | effectiveness in treating hepatitis C (hepatitis C virus (HCV); ribavirin alone, without interferon) | patients requiring a reduction in dose or discontinuation of therapy because of side effects [2] | decrease in available ribavirin [3] | patients who responded positively (hepatitis C virus (HCV); high dose of interferon for six months)
NC(=O)c1ncn([C@@H]2O[C@H](CO)[C@@H](O)[C@H]2O)n1 [ribavirin] | only sparingly soluble | freely soluble | almost instantaneous | not effective | up to 20% | 14% | 
interferon |  |  |  |  |  |  | nearly half
